# Experimental data as given in patent publication US20230303551A1, “N-CYCLYL-SULFONAMIDES USEFUL FOR INHIBITING RAF” (ALBERT EINSTEIN COLLEGE OF MEDICINE, priority 2020, published 2023).
# Entries after “also recorded” stand apart in the source; their conditions may differ.
# How the values were obtained:
# [1] = system: SK-MEL-239-C4 cells; assay: Cell viability (Cell-Titer Glo), SK-MEL-239-C4; type: cell-based; details: SK-MEL-239-C4, 72 hr
# Description: (§1) For cell viability and proliferation assays, we followed the manufacturer's protocol for Cell-Titer Glo (Promega). In brief, cells were plated in 96-well plates at a density of 5000 cells per well. The next day, cells were treated with increasing concentrations of inhibitors for 72 hours at 37° C. At the end of the incubation period, 100 μL of Cell-Titer Glo (Promega) was added to each well and further incubated for 15 min at room temperature. Cell viability was determined by measuring luminescence and was detected by a F200 PRO microplate reader (TECAN). Viability assays were performed in at least triplicate and the data normalized to vehicle-treated control wells. IC50 values were determined by nonlinear regression analysis using Prism software (Graphpad). Antiproliferative synergy was determined by co-treatment of inhibitors at indicated concentrations in 96-well plated at a density of 3000 cells per well. Inhibitors or DMSO control were injected using a D300e digital dispenser (TECAN). Extend of synergy was quantified using the BLISS matrix method.
# [2] = system: RKO cells; assay: Cell viability (Cell-Titer Glo), RKO; type: cell-based
# Description: as §1
# [3] = molecular target: T1, BRAF^V600E (Homo sapiens, UniProt P15056, V600E); assay: LanthaScreen Eu kinase binding assay
# T1 sequence (P15056 whole entry V600E): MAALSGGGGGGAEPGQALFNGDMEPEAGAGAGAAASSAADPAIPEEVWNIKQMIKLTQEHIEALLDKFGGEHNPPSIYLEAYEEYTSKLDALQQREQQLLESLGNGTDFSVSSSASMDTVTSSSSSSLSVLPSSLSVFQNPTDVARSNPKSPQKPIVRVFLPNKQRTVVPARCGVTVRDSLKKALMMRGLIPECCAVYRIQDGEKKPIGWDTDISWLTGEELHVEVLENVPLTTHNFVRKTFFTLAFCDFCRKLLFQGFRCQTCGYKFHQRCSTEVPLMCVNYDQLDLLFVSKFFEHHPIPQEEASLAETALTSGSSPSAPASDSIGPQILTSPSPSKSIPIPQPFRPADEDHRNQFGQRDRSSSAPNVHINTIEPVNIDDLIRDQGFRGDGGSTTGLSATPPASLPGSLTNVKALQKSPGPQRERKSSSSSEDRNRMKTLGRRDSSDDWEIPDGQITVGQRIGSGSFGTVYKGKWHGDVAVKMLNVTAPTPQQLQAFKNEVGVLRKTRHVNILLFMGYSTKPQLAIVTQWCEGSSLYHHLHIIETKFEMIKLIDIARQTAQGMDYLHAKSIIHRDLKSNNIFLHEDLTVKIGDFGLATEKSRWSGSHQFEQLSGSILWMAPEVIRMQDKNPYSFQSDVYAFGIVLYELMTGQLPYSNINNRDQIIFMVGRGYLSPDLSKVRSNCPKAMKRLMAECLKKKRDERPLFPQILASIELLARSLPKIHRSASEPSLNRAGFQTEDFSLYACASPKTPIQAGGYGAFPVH
# Description: Binding affinity of inhibitors to recombinant full-length BRAF was determined using the LanthaScreen Eu Kinase Binding Assay (Invitrogen) in PBS buffer. Initially, saturated binding of fluorescent Alexa Fluor 647 ATP-site tracer T178 (Invitrogen) on BRAF, which was his-tagged at the N-terminus, was established. T178 tracer was then competed-off by increasing amounts of inhibitors in titration experiments in 96-well plates. Competition was detected by loss of TR-FRET signal. The signal was produced by a FRET pair between an Eu-labeled anti his-tag antibody, which recognizes his-tagged BRAF used in the assay, and the T178 tracer. The europium donor was excited using a 340 nm excitation filter and energy transfer to the T178 tracer was measured using a filter centered at 665 nm with a time delay of 200 μs. The emission ratio was calculated as the 665 nm signal divided by the 615 nm signal. The apparent % inhibition was calculated by least squares fits of the emission ratio. […] The maximum DMSO concentration in the assay was 2%.
# [4] = molecular target: T1, BRAF^V600E; assay: Cellular Thermal Shift Assay (CETSA) in A375 cells; type: cell-based; parameters: endogenous in cells; host or cells: A375 melanoma cells; details: A375 cells, 1, 5 and 20 μM
# Text: (§2) Densitometric data for p-ERK, p-MEK, ERK1/2 (MAPK cellular activity) or BRAF and GAPDH (CETSA analysis) from western blot scanned films were obtained using Image Studio software (LI-COR). Data were corrected to loading control (total ERK1/2 or GAPDH) and normalized to DMSO treated bands (100%) and blot backgrounds (0%). IC50 or Tm values were obtained from non-linear regression fits of normalized data to a four-parameter logistic curve (4PL).
# For CETSA analysis, cultured A375 melanoma cells were washed with Dulbecco's phosphate buffered saline (DPBS) and split into 500 μL aliquots (each containing 3,75 million cells) in the same buffer, containing DMSO control (20 μM) or 1, 5 and 20 μM of DAB or DABK. The samples were incubated for 1 hr at room temperature, rotating. After compound incubation, samples (50 μL each) were transferred in PCR tubes and incubated for 3 min in a temperature gradient produced with a C1000 thermal cycler (Bio-Rad). Cells were immediately lysed by repeating freeze-thaw cycles (3× times) in liquid nitrogen. Lysates were spun in a microcentrifuge at 15.000× g for 15 min at 4° C. Equal volumes of supernatants were run on 15-well 4-12% NuPAGE SDS-PAGE gels (Invitrogen), and analyzed by western blot. Results were quantitated by densitometric analysis and were normalized to GAPDH loading control, which is temperature insensitive under these conditions. […]
# [5] = system: A375 cells; assay: Cell viability (Cell-Titer Glo), A375; type: cell-based; details: Homo sapiens, A-375; A375, 72 hr
# Description: as §1
# [6] = system: pERK in A375 xenograft tumors; assay: Pharmacodynamic study, pERK in A375 xenograft tumors; type: in vivo, female SCID mice; details: 5 mg/kg single oral dose, A375 mice xenograft
# Description: (§3) The pharmacokinetic profile of DAB and DABK was assessed in CD-1 female mice after a single dose at 5 mg/kg by oral gavage. Blood samples were collected at various time points (0.5, 1, 2, 4, 6, 12 and 24 hr after oral gavage) and inhibitor concentrations in plasma determined by an internal standard HPLC-chromatography tandem mass spectrometry method using calibration standards prepared in blank mouse plasma. Reported plasma concentrations are average values from 3 mice per time point. For PD study, tumor xenografts were established by subcutaneous implantation of A375 melanoma cells plus Matrigel (BD Biosciences) into the right flank of female SCID mice. Mice were randomized to treatment and control groups when the average tumor volume reached 100-150 mm^3 and were treated with a single oral dose (PO) of either vehicle or inhibitors at 5 mg/kg. Tumors were harvested at 2, 12 and 24 hr post PO (3 mice per group). Harvested tumors were homogenized in lysis buffer containing 50 mM Tris-HCl pH7.5, 1% NP40, 150 mM NaCl, 1 mM EDTA, 10% glycerol and phosphatase/protease inhibitors. pERK levels in clarified lysates were determined by Western Blotting and were expressed as % inhibition by normalization to average levels from vehicle tumors (0% inhibition). Vehicle formulation for DAB and DABK treatment in both PK and PD was 30% PEG-400, 0.5% Tween-20, 5% Glycerol in PBS.
# [7] = system: p-MEK in A375 cells; assay: Wash-out and recovery of MAPK signaling in A375 cells; type: cell-based; details: for relative p-MEK1/2 after washout: A375, 500 nM for 1 hr, then washout
# Description: Wash-out experiments were conducted in A375 cells. After treatment with inhibitors at 500 nM for 1 h (on time), cells were incubated with fresh medium for the indicated times (off time). p-MEK levels were determined by WB and were quantified by densitometric analysis. p-MEK levels were normalized to total ERK1/2 which was used as loading control and control cells (DMSO treatment). Data were fit to an exponential model using least squares, to obtain apparent half-life (t1/2) values.
# as §2
# [8] = molecular target: T1, BRAF^V600E; assay: Z'-LYTE kinase activity assay, BRAF^V600E; type: biochemical; details: equilibrium; ZLYTE
# Description: BRAF kinase assays were performed using the Z′-LYTE™ enzymatic assay (Invitrogen, USA). […] Titrations were performed using a 1:3 dilution. Assays were performed using SelectScreen (Invitrogen).
# [9] = Pharmacokinetic profile, mouse plasma levels after oral gavage; type: in vivo, CD-1 female mice; details: 5 mg/kg
# Description: as §3
# [10] = system: pERK in melanoma A375 cells expressing BRAF^V600E; assay: pERK inhibition in A375 cells (Western blot densitometry); type: cell-based; details: 1 hr treatment
# Description: Western blots were performed from whole cell lysates (WCLs) prepared in lysis buffer containing 50 mM Tris-HCl pH7.5, 1% NP40, 150 mM NaCl, 1 mM EDTA and 10% glycerol in the presence of protease inhibitor cocktail (Roche). WCLs were separated on a 4-12% NuPAGE MES gel (Invitrogen), transferred onto a PVDF membrane, blocked for lhr and immunoblotted with the corresponding antibodies.
# as §2
# [11] = molecular target: full length BRAF^V600E (Homo sapiens, UniProt P15056, V600E); assay: In vitro residence time (ATP-site tracer T178 displacement, LanthaScreen); type: binding; details: kinase ATP-probe displacement
# Sequence of full length BRAF^V600E (P15056 whole entry V600E): as above
# Description: Residence times of inhibitors to recombinant full-length BRAF was determined using an adaptation of the LanthaScreen Eu Kinase Binding Assay (Invitrogen). Initially, binding of inhibitors to his-tagged BRAF labelled with Eu-anti-his antibody at 80-90% saturation was established, by incubating inhibitors and BRAF in PBS buffer (max DMSO 2%) for […] The reactions were then rapidly diluted 25× times in a saturated concentration of the fluorescent ATP-site tracer T178 (Invitrogen). Dissociation of inhibitors from BRAF by T178 tracer was monitored in real-time by detecting the TR-FRET […] to […] emission ratio every 20 sec. The TR-FRET signal was normalized between 100% (no inhibitors present) and 0% (saturated inhibitor binding). Time traces were fit to a single exponential to obtain the half-life (t1/2) of dissociation of inhibitors. Residence times for each inhibitor were calculated as (t1/2)/ln2.
# [12] = system: panel of 97 kinases; assay: KinomeScan; type: binding; details: competition screen
# [13] = system: A549 cells; assay: Cell viability and antiproliferative synergy with cobimetinib (Bliss matrix), A549; type: cell-based; details: A549, combination with cobimetinib (COB)
# Description: as §1
# [14] = system: p-ERK1/2 and p-MEK1/2 in SKMEL239-C4 cells; assay: Wash-out and recovery of MAPK signaling in SKMEL239-C4 cells; type: cell-based; details: SKMEL239-C4, 500 nM for 1 hr, then washout
IC50 ([1]; 72 h),SMILES,"IC50 ([2]; Homo sapiens, 72 h)",IC50 [1],melting temperature (Tm) [4],IC50 ([2]; 72 hr),IC50 [5],relative p-MEK1/2 after washout [7],IC50 of pERK inhibition [10],apparent in vitro residence time (Koff) [11],p-MEK1/2 inhibition after washout [14],relative p-ERK1/2 after washout [14],other results
> 400 nM,"CCCS(=O)(=O)Nc1ccc(F)c(C(=O)c2c[nH]c3ncc(-c4ccc(Cl)cc4)cc23)c1F [VEM, vemurafenib]",> 400 nM,,,,,,,,,,
35 nM,COC(=O)N[C@@H](C)CNc1nccc(-c2sc(C(C)(C)C)nc2-c2cccc(NS(=O)(=O)c3c(F)cccc3F)c2F)n1 [DABK],20 nM,35.3 nM,very similar,20.6 nM,3.4 nM,prolonged signaling inhibition over time,comparable IC50 to Enco,sustained binding in the time frame of the experiment,Almost complete p-MEK1/2 inhibition over time,prolonged ERK signaling inhibition over time,"Kd, binding affinity [3]: low nM range; endurance of pERK inhibition in tumors [6]: > 12 hr; half-life of recovery of pMEK inhibition ([7]; A375, 500 nM for 1 h, then wash-out): 2.5 hours; retention of p-MEK inhibition relative to DAB ([7]; A375 wash-out, times longer than DAB): approximately 4.4 times; IC50, kinase inhibitory activity [8]: low nM range; clearance from the blood [9]: faster clearance from the blood than DAB; targeting selectivity across the kinome [12]: improved compared to DAB's; also recorded: improved targeting selectivity across the kinome; also recorded: higher specificity than DAB; extent of antiproliferative synergy [13]: strong synergy"
> 400 nM,"COC(=O)N[C@@H](C)CNc1nccc(-c2cn(C(C)C)nc2-c2cc(Cl)cc(NS(C)(=O)=O)c2F)n1 [Enco, encorafenib]",> 400 nM,,,,,,,sustained binding in the time frame of the experiment,,,
,COC(=O)N[C@@H](CN)CNc1nccc(-c2sc(C(C)(C)C)nc2-c2cccc(NS(=O)(=O)c3c(F)cccc3F)c2F)n1 [Compound K8],,,,,,prolonged signaling inhibition over time,,,Almost complete p-MEK1/2 inhibition over time,prolonged ERK signaling inhibition over time,
,C[C@@H](CNc1nccc(-c2sc(C(C)(C)C)nc2-c2cccc(NS(=O)(=O)c3c(F)cccc3F)c2F)n1)NC(=O)CCO [Compound K6],,,,,,prolonged signaling inhibition over time,,,Almost complete p-MEK1/2 inhibition over time,prolonged ERK signaling inhibition over time,

SMILES,IC50 ([1]; 72 h),"IC50 ([2]; Homo sapiens, 72 h)",IC50 [1],melting temperature (Tm) [4],IC50 ([2]; 72 hr),IC50 [5],relative p-MEK1/2 after washout [7],IC50 of pERK inhibition [10],apparent in vitro residence time (Koff) [11],p-MEK1/2 inhibition after washout [14],relative p-ERK1/2 after washout [14],other results
"CC(C)(C)c1nc(-c2cccc(NS(=O)(=O)c3c(F)cccc3F)c2F)c(-c2ccnc(N)n2)s1 [DAB, dabrafenib]",> 400 nM,> 400 nM,456 nM,very similar,425 nM,5.3 nM,,lower IC50,significantly shorter residence times,,,
